Reference: ChEMBL document CHEMBL1131299 (J Med Chem, 1998)

Columns and labels:
Progesterone receptor [1] = molecular target: T1, Progesterone receptor (Homo sapiens, UniProt P06401); assay: The binding affinity measured using baculovirus-expressed hPR-A in sf21 cells.
T1 sequence (P06401 whole entry): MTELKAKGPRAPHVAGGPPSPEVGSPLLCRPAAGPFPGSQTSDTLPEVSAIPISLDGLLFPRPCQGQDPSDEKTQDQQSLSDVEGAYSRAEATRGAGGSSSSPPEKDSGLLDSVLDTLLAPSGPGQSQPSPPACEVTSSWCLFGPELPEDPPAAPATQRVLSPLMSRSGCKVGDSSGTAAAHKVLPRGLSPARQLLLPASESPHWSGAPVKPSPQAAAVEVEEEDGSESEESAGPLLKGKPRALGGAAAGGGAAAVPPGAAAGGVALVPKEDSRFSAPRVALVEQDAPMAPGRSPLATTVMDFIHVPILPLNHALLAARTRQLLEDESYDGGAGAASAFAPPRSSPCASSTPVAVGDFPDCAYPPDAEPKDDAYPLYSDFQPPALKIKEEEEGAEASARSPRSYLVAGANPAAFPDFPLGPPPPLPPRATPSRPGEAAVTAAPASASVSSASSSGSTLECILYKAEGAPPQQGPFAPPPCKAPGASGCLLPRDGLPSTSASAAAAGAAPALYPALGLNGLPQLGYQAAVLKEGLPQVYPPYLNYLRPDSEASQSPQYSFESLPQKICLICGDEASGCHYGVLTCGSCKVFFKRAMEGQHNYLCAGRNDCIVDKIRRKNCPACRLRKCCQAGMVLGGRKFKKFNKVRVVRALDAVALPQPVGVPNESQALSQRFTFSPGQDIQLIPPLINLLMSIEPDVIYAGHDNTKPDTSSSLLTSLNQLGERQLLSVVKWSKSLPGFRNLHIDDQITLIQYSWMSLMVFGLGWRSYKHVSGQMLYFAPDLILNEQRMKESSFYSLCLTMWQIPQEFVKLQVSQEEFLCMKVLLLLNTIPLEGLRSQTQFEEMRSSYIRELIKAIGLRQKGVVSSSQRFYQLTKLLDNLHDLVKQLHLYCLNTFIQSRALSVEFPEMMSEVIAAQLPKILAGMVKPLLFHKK

Progesterone receptor [2] = molecular target: T1, Progesterone receptor; assay: Agonistic activity was measured for modulation of hPR-B (human progesterone receptor) in co-transfected CV-1 cells.; type: functional, cell-based
Rattus norvegicus = species on record: Rattus norvegicus; assay: Compound was Dawley rats expressed as response to MPA at […]; type: functional

Compound | Ki (Progesterone receptor [1]) [nM] | EC50 (Progesterone receptor [2]) [nM] | Efficacy (Rattus norvegicus) [%]
CC1=CC(C)(C)Nc2ccc3c(c21)C(c1cccc(C(F)(F)F)c1)Oc1ccc(Cl)cc1-3 (stereo not drawn) | 1.1 | – | –
COc1ccc(C2Oc3ccc(Cl)cc3-c3ccc4c(c32)C(C)=CC(C)(C)N4)cc1 (stereo not drawn) | 0.93 | 13 | –
CC1=CC(C)(C)Nc2ccc3c(c21)C(c1cccc(C)c1)Oc1ccc(Cl)cc1-3 (stereo not drawn) | 0.55 | 7.1 | –
COc1ccc2c(c1)-c1ccc3c(c1C(c1ccc(Cl)cc1)O2)C(C)=CC(C)(C)N3 (stereo not drawn) | 2.4 | 3.1 | –
CC1=CC(C)(C)Nc2ccc3c(c21)C(c1ccccc1)Oc1ccc(Cl)cc1-3 (stereo not drawn) | 0.74 | 6.9 | –
CC1=CC(C)(C)Nc2ccc3c(c21)C(c1cccc(F)c1)Oc1ccc(Cl)cc1-3 (stereo not drawn) | 0.34 | 3.7 | –
CC1=CC(C)(C)Nc2ccc3c(c21)C(c1ccc(Cl)cc1)Oc1ccccc1-3 (stereo not drawn) | – | 15 | –
CC1=CC(C)(C)Nc2ccc3c(c21)C(c1ccc(Cl)cc1)Oc1cc(F)ccc1-3 (stereo not drawn) | 2.7 | 10 | –
CC1=CC(C)(C)Nc2ccc3c(c21)C(c1ccccc1)Oc1ccc(F)cc1-3 (stereo not drawn) | 2.2 | 7.4 | –
CC1=CC(C)(C)Nc2ccc3c(c21)C(c1cccc(Cl)c1)Oc1ccc(Cl)cc1-3 (stereo not drawn) | 0.48 | 3.6 | –
CC1=CC(C)(C)Nc2ccc3c(c21)C(c1ccc(Br)cc1)Oc1ccc(Cl)cc1-3 (stereo not drawn) | 0.59 | 5.2 | 60
CC1=CC(C)(C)Nc2ccc3c(c21)C(c1ccc(Cl)cc1)Oc1ccc(Cl)cc1-3 (stereo not drawn) | 0.59 | 9 | 108
CC1=CC(C)(C)Nc2ccc3c(c21)C(c1ccc(Cl)c(C)c1)Oc1ccc(Cl)cc1-3 (stereo not drawn) | 0.5 | – | –
CC1=CC(C)(C)Nc2ccc3c(c21)C(c1ccc(Cl)c(C)c1)Oc1ccc(F)cc1-3 (stereo not drawn) | 0.49 | 2.7 | –
CC(=O)O[C@]1(C(C)=O)CC[C@H]2[C@@H]3C[C@H](C)C4=CC(=O)CC[C@]4(C)[C@H]3CC[C@@]21C [MEDROXYPROGESTERONE ACETATE] | – | – | 100
CC1=CC(C)(C)Nc2ccc3c(c21)C(c1cccc(C(F)(F)F)c1)Oc1ccc(F)cc1-3 (stereo not drawn) | 0.78 | 10 | –
CC1=CC(C)(C)Nc2ccc3c(c21)C(c1cccc(Cl)c1)Oc1ccc(F)cc1-3 (stereo not drawn) | 0.32 | 2.8 | –
CC1=CC(C)(C)Nc2ccc3c(c21)C(c1ccc(F)c(C)c1)Oc1ccc(F)cc1-3 (stereo not drawn) | 1.3 | 15 | –
CC1=CC(C)(C)Nc2ccc3c(c21)C(c1ccc(F)c(C)c1)Oc1ccc(Cl)cc1-3 (stereo not drawn) | 1.3 | 9.5 | –
CC1=CC(C)(C)Nc2ccc3c(c21)C(c1ccc(Cl)cc1)Oc1ccc(F)cc1-3 (stereo not drawn) | 0.32 | 8.1 | 116
CC1=CC(C)(C)Nc2ccc3c(c21)C(c1cccc(C)c1)Oc1ccc(F)cc1-3 (stereo not drawn) | 0.37 | 5 | –
COc1ccc(C2Oc3ccc(F)cc3-c3ccc4c(c32)C(C)=CC(C)(C)N4)cc1 (stereo not drawn) | 2.7 | 270 | –
